From US20020082448A1, “Aminoguanidine carboxylates for the treatment of non-insulin-dependent diabetes mellitus” (The Upjohn Company, priority 1999, published 2002)
Read-outs that look alike come from different tables or passages of the source.

Key:
[1] = Body weight change in KKAy mice, compound admixed in chow; format: in vivo, mouse; conditions: for % Change Body Weight: Day 3 vs Day-1
Text: (§1) KKAy mice are rodent models of NIDDM and obesity (Chang, Wyse, Copeland, Peterson, and Ledbetter, 1986). A pre-treatment blood sample was obtained from the retro-orbital sinus and the mice arranged in groups of 6 so that the mean pre-treatment blood glucose level was the same on average in all groups. […] Control mice received unsupplemented chow. On Day 0, the mice were weighed and provided control chow or chow supplemented with test compounds. After 3 days of consuming control chow or chow supplemented with test compounds, a blood sample was obtained for determination of the glucose concentration and the animals were weighed for determination of weight loss. Food consumption was measured by weighing the food provided at the beginning of the study and the food residue at the end of the study. Food consumption was calculated by subtracting the weight of the residue from the weight of the food provided. Drug intake was calculated by multiplying food consumption by 0.5%. […] Blood glucose data are expressed as the average blood glucose concentration in the test group divided by the average blood glucose level in the control group (treatment/control or T/C). Compounds resulting in T/C values equal to or less than 0.90 are considered to be active anti-hyperglycemic agents. Weigh loss data are expressed as percent change in body weight. Compounds resulting in a decrease of 1% or more less than control in body weight over three days are considered to be active anti-obesity agents.

[2] = system: KKAy mice; experiment: Reduction of non-fasting blood glucose in KKAy mice, compound admixed in chow; format: in vivo, mouse; conditions: for % Change Blood Glucose: Day 3 vs Day-1
Text: as §1, with “provided.” for “provided. Drug intake was calculated by multiplying food consumption by 0.5%.”

[3] = system: mice; conditions: cited from earlier work
[4] = target: human serum albumin (Homo sapiens, UniProt P02768); experiment: Non-enzymatic glycosylation of human serum albumin, [14C]-glucose incorporation; format: biochemical; conditions: for non-enzymatic glycosylation of human serum albumin in vitro: Table 8 assay; for % [14C-glucose] Incorporated: test compound 19.1 mM, 100 mM [14C]-D-glucose, human serum albumin, 37° C., 8 days, control 1.50
Chain of human serum albumin (P02768 25-609): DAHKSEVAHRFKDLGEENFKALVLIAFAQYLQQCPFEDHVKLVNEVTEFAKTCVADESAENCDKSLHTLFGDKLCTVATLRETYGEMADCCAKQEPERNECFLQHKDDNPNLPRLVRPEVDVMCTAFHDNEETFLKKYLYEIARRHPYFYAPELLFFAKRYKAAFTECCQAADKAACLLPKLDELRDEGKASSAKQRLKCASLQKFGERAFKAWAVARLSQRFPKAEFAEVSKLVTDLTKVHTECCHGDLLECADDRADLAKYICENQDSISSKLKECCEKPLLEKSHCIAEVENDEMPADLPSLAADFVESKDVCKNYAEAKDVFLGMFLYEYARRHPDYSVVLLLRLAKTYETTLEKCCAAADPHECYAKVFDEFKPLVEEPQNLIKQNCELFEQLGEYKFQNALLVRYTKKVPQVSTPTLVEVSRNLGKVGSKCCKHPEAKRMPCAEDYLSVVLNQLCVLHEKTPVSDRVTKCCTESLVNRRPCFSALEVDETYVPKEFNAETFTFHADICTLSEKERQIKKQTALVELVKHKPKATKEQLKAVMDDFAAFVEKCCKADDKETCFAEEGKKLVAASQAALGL

[5] = cited from earlier work
[6] = system: proteins; conditions: in vitro; cited from earlier work
[7] = system: rats; conditions: cited from earlier work; for effect on hyperglycemia: chronic oral
[8] = system: advanced glycosylation endproducts; conditions: in vivo; cited from earlier work
[9] = system: rats; conditions: cited from earlier work
[10] = cited from earlier work; remark: listed apart in the source
[11] = system: erythrocyte plasma membranes; conditions: incubated with glucose in vitro, cited from earlier work
[12] = system: mice; conditions: cited from earlier work; for effect on hyperglycemia / effect on blood glucose concentration: chronic oral; for effect on blood glucose concentration: 250 mg/kg/day
[13] = cited from earlier work; remark: listed apart in the source
[14] = system: C57BL mice; experiment: Intraperitoneal glucose tolerance in non-diabetic C57BL mice; format: in vivo, mouse; conditions: for Blood Glucose: C57BL mice, 100 mg/kg oral gavage
[15] = system: KKAy mice; experiment: Intraperitoneal glucose tolerance in diabetic KKAy mice; format: in vivo, mouse; conditions: for Blood Glucose: KKAy mice, 100 mg/kg oral gavage
[16] = 0.5% in chow (approx. 500 mg/kg/day)
[17] = normal or alloxan-diabetic rats
[18] = 0.03% in chow (approx. 30 mg/kg/day)
[19] = 0.06% in chow (approx. 60 mg/kg/day)
[20] = 0.10% in chow (approx. 100 mg/kg/day)
[21] = 0.2% in chow (approx. 200 mg/kg/day)
[22] = 0.3% in chow (approx. 300 mg/kg/day)
[23] = 0.4% in chow (approx. 400 mg/kg/day)
[24] = 30 min after 2 g/kg glucose I.P.
[25] = 60 min after 2 g/kg glucose I.P.
[26] = 90 min after 2 g/kg glucose I.P.
[27] = fasted 16-17 h, Time 0 (before 2 g/kg glucose I.P.)

**Q.** Which “% Change Body Weight” value [1, 16] does the source give for `N=C(N)NCCC(=O)O` [3-Guanidinopropionic acid] here?
**A.** −5.4 ± 0.81 %

**Q.** And the “dose required to reduce the blood glucose level by 20%” value [2]?
**A.** 130 mg/kg/day

**Q.** And the “% Change Blood Glucose” value [2, 16]?
**A.** −38.4 ± 4.4 %

**Q.** What about the glucose tolerance ([3]; diabetic KKAy mice, 1% admixture in chow, approximately 1000 mg/kg/day) of the same compound?
**A.** improves glucose tolerance

**Q.** And the “non-enzymatic glycosylation of human serum albumin in vitro” value (“non-enzymatic glycosylation … in vitro” below) [4]?
**A.** no effect

**Q.** And the “% [14C-glucose] Incorporated” value [4]?
**A.** 1.52%

**Q.** Which “effect on body weight” value ([5]; human and rats (Baylin et al.)) does the source give for `N=C(N)NN` [Aminoguanidine] here?
**A.** increase in body weight

**Q.** And the “effect on body weight” value ([5]; normal or diabetic rats)?
**A.** no effect

**Q.** What about the “non-enzymatic glycosylation … in vitro” value [4] of the same compound?
**A.** effective

**Q.** And the “% [14C-glucose] Incorporated” value [4]?
**A.** 0.96 (P < 0.05 vs. Control) %

**Q.** What about the “non-enzymatic glycosylation of proteins” value [6] of the same compound?
**A.** inhibit

**Q.** What about the “effect on blood glucose level” value ([7]; normal rodents or rats made diabetic by alloxan or streptozotocin) of the same compound?
**A.** no effect

**Q.** And the “formation of advanced glycosylation endproducts” value [8]?
**A.** inhibit

**Q.** With `N/N=C(\N)NN` [Diaminoguanidine] as the compound, how does the “effect on body weight” value [5, 17] read?
**A.** does not affect

**Q.** What about the “non-enzymatic glycosylation of proteins” value [6] of the same compound?
**A.** inhibit

**Q.** And the “effect on blood glucose level” value [7, 17]?
**A.** no effect

**Q.** What about the “formation of advanced glycosylation endproducts” value [8] of the same compound?
**A.** inhibit

**Q.** What does the source list for `CN(C)C(=N)N=C(N)N` [Metformin]?
**A.** glucose tolerance ([9]; normal rats, 750 mg/kg): not affect glucose tolerance; oral glucose tolerance ([9]; streptozotocin-diabetic rats, 250 mg/kg): oral glucose tolerance was increased; effect on body weight ([10]; KKAy mice, 1700 mg/kg/day, not at lower doses): statistically significant weight loss; effect on body weight ([10]; diabetic ob/ob mice, 240 mg/kg/day): did not cause weight loss; effect on body weight ([10]; streptozotocin-diabetic mice, 60 mg/kg/day): did not cause weight loss; glucose tolerance ([3]; normal mice, 50 mg/kg): not affect glucose tolerance; oral glucose tolerance ([3]; normal mice, 250 mg/kg): oral glucose tolerance was increased; non-enzymatic glycosylation of erythrocyte plasma membranes ([11]; 0.5 and 5 micromoles per liter): inhibit non-enzymatic glycosylation; non-enzymatic glycosylation of erythrocyte plasma membranes ([11]; 50 and 100 micromoles per liter): reverse effect; effect on hyperglycemia ([12]; DBM mice, 400 mg/kg/day): reduces hyperglycemia; dose required to reduce the blood glucose level by 25% ([12]; KKAy mice (Meglasson et al.)): 300 mg/kg/day; effect on hyperglycemia ([12]; KKAy mice, 300 mg/kg/day or more): reduces hyperglycemia; effect on blood glucose concentration ([12]; diabetic ob/ob mice): did not affect; effect on blood glucose concentration ([12]; normal mice): did not affect; effect on blood glucose concentration ([12]; streptozotocin-diabetic mice): did not affect; effect on hyperglycemia ([7]; Zucker fa/fa rats, 350 mg/kg/day): reduces hyperglycemia; effect on hyperglycemia ([7]; neonatal streptozotocin-diabetic rats, 100 mg/kg/day): reduces hyperglycemia; effect on blood glucose level ([7]; rats, acute administration, 264 mg/kg): did not affect; effect on body weight ([13]; non-insulin dependent diabetic patients treated for one year (Bailey)): cause weight loss; effect on body weight ([13]; obese non-insulin dependent diabetic patients, similar length of time (Multi-centre Study)): no significant effect

**Q.** With `NNC(=NCC(=O)O)NN` [N-(dihydrazinomethylene)-glycine] as the compound, how does the “% Change Body Weight” value [1, 18] read?
**A.** −0.92 ± 0.35%

**Q.** And the “% Change Body Weight” value [1, 19]?
**A.** −1.51 ± 2.11%

**Q.** What about the “% Change Body Weight” value [1, 20] of the same compound?
**A.** −4.04 ± 0.76 %

**Q.** And the “decrease in the body weight” value ([1]; 100 mg/kg/day, 4 days)?
**A.** 4%

**Q.** What about the “% Change Body Weight” value [1, 21] of the same compound?
**A.** −8.22 ± 1.05 %

**Q.** What about the “% Change Body Weight” value [1, 22] of the same compound?
**A.** −9.94 ± 1.62 ¶ %

**Q.** What about the “% Change Body Weight” value [1, 23] of the same compound?
**A.** −10.3 ± 0.97 ¶ %

**Q.** What about the “dose for a similar (25%) reduction in the blood glucose level” value [2] of the same compound?
**A.** 30 to 60 mg/kg/day

**Q.** And the “dose required to reduce the blood glucose level by 20%” value [2]?
**A.** 30 mg/kg/day

**Q.** What about the “% Change Blood Glucose” value [2, 18] of the same compound?
**A.** −13.5 ± 10.5%

**Q.** What about the “% Change Blood Glucose” value [2, 19] of the same compound?
**A.** −34.9 ± 17.1 %

**Q.** What about the “decrease in the blood glucose level” value ([2]; 60 mg/kg/day, 4 days) of the same compound?
**A.** 35%

**Q.** And the “% Change Blood Glucose” value [2, 20]?
**A.** −45.2 ± 6.4 %

**Q.** And the “% Change Blood Glucose” value [2, 21]?
**A.** −69.9 ± 3.2 ¶ %

**Q.** And the “% Change Blood Glucose” value [2, 22]?
**A.** −70.4 ± 1.5 ¶ %

**Q.** And the “% Change Blood Glucose” value [2, 23]?
**A.** −70.3 ± 3.9 ¶ %

**Q.** What about the “non-enzymatic glycosylation … in vitro” value [4] of the same compound?
**A.** reduced

**Q.** What about the “% [14C-glucose] Incorporated” value [4] of the same compound?
**A.** 0.81 (P < 0.05 vs. Control) %

**Q.** And the “Blood Glucose” value [14, 24]?
**A.** 174 ± 17 mg/dL

**Q.** And the “Blood Glucose” value [14, 25]?
**A.** 153 ± 7 mg/dL

**Q.** What about the “Blood Glucose” value [14, 26] of the same compound?
**A.** 161 ± 19 mg/dL

**Q.** What about the “Blood Glucose” value [14, 27] of the same compound?
**A.** 114 ± 9 mg/dL

**Q.** And the “fasting blood glucose concentration” value ([14]; normal C57BL mice, 100 mg/kg)?
**A.** decreased

**Q.** And the glucose tolerance ([14]; normal C57BL mice, 100 mg/kg)?
**A.** improved glucose tolerance

**Q.** What about the “Blood Glucose” value [15, 24] of the same compound?
**A.** 383 ± 38 mg/dL

**Q.** What about the “Blood Glucose” value [15, 25] of the same compound?
**A.** 396 ± 63 mg/dL

**Q.** What about the “Blood Glucose” value [15, 26] of the same compound?
**A.** 392 ± 67 mg/dL

**Q.** What about the “Blood Glucose” value [15, 27] of the same compound?
**A.** 115 ± 16 mg/dL

**Q.** What about the glucose tolerance ([15]; diabetic KKAy mice, 100 mg/kg) of the same compound?
**A.** improved glucose tolerance

**Q.** Which results are given for `Cl.N=C(N)NNCC(=O)O` [[2-(aminoiminomethyl)hydrazino]-, monohydrochloride acetic acid]?
**A.** non-enzymatic glycosylation of human serum albumin in vitro [4]: reduced; % [14C-glucose] Incorporated [4]: 1.29 (P < 0.10 vs. Control) %

**Q.** For `CCCCNC(=N)NC(=N)N` [buformin], which “effect on blood glucose level” value ([7]; rats, acute administration, 132 mg/kg) is on record?
**A.** did not affect
